Assay [1] deals with β3GlcNAcT. Put plainly: β3GlcNAcT acceptor specificity. The note with it: acceptor substrate; lactose (4) = 100%.
For assay [2], the target named is T1, chicken ST6GalNAc-I (Gallus gallus, UniProt Q92183).
T1 construct: made in house; host or cells: insect cells
Put plainly: chST6GalNAc-I activity on small acceptor molecules. Type of assay: biochemical. Particulars: α-D-galacto derivatives as acceptors. The text has this:
The inventors have previously reported the cloning, expression, and characterization of chicken ST6GalNAc-I and its use in preparative synthesis of the O-linked sialoside antigens, STn-, α(2-6)SiaT-, α(2-3)SiaT- and Di-SiaT-antigen. Blixt, O.; Allin, K.; Pereira, L.; Datta, A. and Paulson, J. C., J. Am. Chem. Soc. 2002, 124, 5739-5746. Briefly, the recombinant enzyme was expressed in insect cells and purified by CDP-sepharose affinity chromatography to generate approximately 10 U/L of cell culture.

The test system of assay [3] is anti-carbohydrate antibodies in sera of metastatic breast cancer patients. Put plainly: Glycan array with sera of metastatic breast cancer patients. The assay is classed as binding, human. The note with it: sera diluted 1:25; for binding by antibodies from metastatic breast cancer patients: 9 MBC patients; for level of serum antibodies against the glycan in MBC patients compared to healthy individuals: relative fluorescence, FIG. 8-9. The protocol:
Individual (not pooled) sera were collected from 9 patients who were diagnosed with metastatic breast cancer (MBC). Blood samples were collected before treatment, so that therapeutic intervention would not interfere with patient immune responses. One patient with breast cancer but with good prognosis (IDC, Stage 1) was also included in the study. As control, or “healthy” sera, sera from ten healthy individuals, 5 female and 5 male, with no known malignancies was collected.
Sera were diluted 1:25 with PBS containing 3% BSA, and placed on the glycan array slide in humidified chamber at room temperature for 90 min. The glycan array slide was then rinsed gently with PBS/0.05% Tween, incubated with biotinylated goat antibody against human IgG, IgM and IgA, rinsed in PBS/0.05% Tween, and incubated with streptavidin-Alexa488 fluorescent dye. Following rinses in PBS/0.05% Tween and H2O, glycan array slides were dried and scanned using the commercial DNA array scanner. […] Signal to background was typically greater 50:1 and no background subtractions were performed. Data were plotted using MS Excel software.

The subject of assay [4] is Human anti-HIV 2G12 monoclonal antibody. Put plainly: Glycan array binding of 2G12. The note with it: 2G12 30 μg/mL pre-complexed with goat anti-human-IgG-FITC. The text has this:
Glycan array fabrication.
Glycan Binding Protein binding assay.
Image acquisition and signal processing. […] Data were plotted using MS Excel software.

The results in this text go back to patent publication US20070265170A1, “DETECTION, PREVENTION AND TREATMENT OF OVARIAN CANCER” (priority 2006, published 2007).

T1 sequence (Q92183 whole entry): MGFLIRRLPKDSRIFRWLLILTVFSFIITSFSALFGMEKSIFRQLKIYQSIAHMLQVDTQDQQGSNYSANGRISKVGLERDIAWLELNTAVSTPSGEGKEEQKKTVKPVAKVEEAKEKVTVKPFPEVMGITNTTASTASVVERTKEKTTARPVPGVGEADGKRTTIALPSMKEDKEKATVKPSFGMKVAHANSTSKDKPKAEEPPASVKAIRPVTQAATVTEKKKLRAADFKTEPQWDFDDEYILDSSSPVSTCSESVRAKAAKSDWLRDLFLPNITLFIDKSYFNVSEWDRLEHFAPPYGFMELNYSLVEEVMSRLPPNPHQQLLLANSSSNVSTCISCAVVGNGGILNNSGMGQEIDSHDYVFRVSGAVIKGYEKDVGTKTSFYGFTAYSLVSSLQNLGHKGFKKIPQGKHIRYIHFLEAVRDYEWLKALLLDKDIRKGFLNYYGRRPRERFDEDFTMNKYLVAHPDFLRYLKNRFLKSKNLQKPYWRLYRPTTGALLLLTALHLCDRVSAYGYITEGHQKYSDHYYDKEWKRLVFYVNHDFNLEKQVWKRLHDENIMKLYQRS

For the molecule `OCC1O[C@@H](O)C(O)[C@@H](O)[C@@H]1O[C@@H]1OC(CO)[C@H](O)[C@H](O)C1O` (stereo partly drawn) [Compound 4], the “Relative enzyme activity (%) β(1-3)GlcNAcT-activity” value in assay [1] is recorded as 100%.
For the molecule `CC(=O)N[C@H]1C(O)O[C@H](CO)[C@H](O)[C@@H]1O` (stereo partly drawn) [D-GalNAc], in assay [2], the “chST6GalNac-I Activity, cpm” value is listed as 0 cpm and the “chST6GalNac-I Activity, nmol/mg × min^−1” value amounted to 0.00 nmol/mg × min^−1.
In the case of Ab3ANb4[NNa3]Ab4Gb#sp1 GM1 [Glycan 58], in assay [3], the “binding by antibodies from metastatic breast cancer patients” value (shortened to “binding by antibodies”) is “bind” and the “level of serum antibodies against the glycan in MBC patients compared to healthy individuals” value (“level … compared to healthy individuals” for short) is “higher than in the healthy individuals”.
Regarding “Fa2Ab3Anb3Aa4Ab4G#sp3 Globo-H [Glycan 97]”, in assay [3], the “binding by antibodies” value was “bind” and the “level … compared to healthy individuals” value is reported as “higher than in the healthy individuals”.
The like results for GNb3Ab4Gb#sp1 LNT-2 [Glycan 123] were, in that order, “bind” and “higher than in the healthy individuals”.
In the case of Man-9#aa Man9-aminoacid [Glycan 145], the “2G12 binding to arrayed glycan” value in assay [4] is recorded as “smaller level of binding”.
For the molecule “NJa6ANa#sp2 Neu5Gc6GalNAc (STn) [Glycan 155]”, the “binding by antibodies” value in assay [3] is recorded as “bind”.
For NNa6ANa#sp2 6SiaβGalNAc [Glycan 190], in assay [3], the “binding by antibodies” value was “bind” and the “level … compared to healthy individuals” value is listed as “significantly higher levels”.

B1: Ceruloplasmine (protein, UniProt P00450 20-1065, looked up)
Ceruloplasmin: KEKHYYIGIIETTWDYASDHGEKKLISVDTEHSNIYLQNGPDRIGRLYKKALYLQYTDETFRTTIEKPVWLGFLGPIIKAETGDKVYVHLKNLASRPYTFHSHGITYYKEHEGAIYPDNTTDFQRADDKVYPGEQYTYMLLATEEQSPGEGDGNCVTRIYHSHIDAPKDIASGLIGPLIICKKDSLDKEKEKHIDREFVVMFSVVDENFSWYLEDNIKTYCSEPEKVDKDNEDFQESNRMYSVNGYTFGSLPGLSMCAEDRVKWYLFGMGNEVDVHAAFFHGQALTNKNYRIDTINLFPATLFDAYMVAQNPGEWMLSCQNLNHLKAGLQAFFQVQECNKSSSKDNIRGKHVRHYYIAAEEIIWNYAPSGIDIFTKENLTAPGSDSAVFFEQGTTRIGGSYKKLVYREYTDASFTNRKERGPEEEHLGILGPVIWAEVGDTIRVTFHNKGAYPLSIEPIGVRFNKNNEGTYYSPNYNPQSRSVPPSASHVAPTETFTYEWTVPKEVGPTNADPVCLAKMYYSAVEPTKDIFTGLIGPMKICKKGSLHANGRQKDVDKEFYLFPTVFDENESLLLEDNIRMFTTAPDQVDKEDEDFQESNKMHSMNGFMYGNQPGLTMCKGDSVVWYLFSAGNEADVHGIYFSGNTYLWRGERRDTANLFPQTSLTLHMWPDTEGTFNVECLTTDHYTGGMKQKYTVNQCRRQSEDSTFYLGERTYYIAAVEVEWDYSPQREWEKELHHLQEQNVSNAFLDKGEFYIGSKYKKVVYRQYTDSTFRVPVERKAEEEHLGILGPQLHADVGDKVKIIFKNMATRPYSIHAHGVQTESSTVTPTLPGETLTYVWKIPERSGAGTEDSACIPWAYYSTVDQVKDLYSGLIGPLIVCRRPYLKVFNPRRKLEFALLFLVFDENESWYLDDNIKTYSDHPEKVNKDDEEFIESNKMHAINGRMFGNLQGLTMHVGDEVNWYLMGMGNEIDLHTVHFHGHSFQYKHRGVYSSDVFDIFPGTYQTLEMFPRTPGIWLLHCHVTDHIHAGMETTYTVLQNEDTKSG
Consider B1, for which, in assay [3], the “binding by antibodies” value is “bind” and the “level … compared to healthy individuals” value is on record as “significantly higher levels”.
